# Data: article PMC12267471, “Discovery of natural scaffolds as HER2 inhibitors for breast cancer: virtual screening, molecular dynamics, and biological characterization with selectivity profiling” (Scientific Reports, 2025)
# Like-named read-outs stand apart in the source and are kept apart here.
# What was measured:
# HER2 kinase = target: T1, HER2 kinase (Homo sapiens, UniProt P04626); assay: Z'-LYTE Kinase Assay-Tyr6 Peptide biochemical HER2 kinase assay; conditions: cell-free Z'-LYTE, Tyr6 peptide substrate; read-out: IC50, inhibition of ATP-induced HER2 phosphorylation
# T1 construct: HER2 purified kinase domain (amino acids 676–1255); purchased Thermo Fischer Scientific PV3590
# T1 sequence (P04626 676-1255): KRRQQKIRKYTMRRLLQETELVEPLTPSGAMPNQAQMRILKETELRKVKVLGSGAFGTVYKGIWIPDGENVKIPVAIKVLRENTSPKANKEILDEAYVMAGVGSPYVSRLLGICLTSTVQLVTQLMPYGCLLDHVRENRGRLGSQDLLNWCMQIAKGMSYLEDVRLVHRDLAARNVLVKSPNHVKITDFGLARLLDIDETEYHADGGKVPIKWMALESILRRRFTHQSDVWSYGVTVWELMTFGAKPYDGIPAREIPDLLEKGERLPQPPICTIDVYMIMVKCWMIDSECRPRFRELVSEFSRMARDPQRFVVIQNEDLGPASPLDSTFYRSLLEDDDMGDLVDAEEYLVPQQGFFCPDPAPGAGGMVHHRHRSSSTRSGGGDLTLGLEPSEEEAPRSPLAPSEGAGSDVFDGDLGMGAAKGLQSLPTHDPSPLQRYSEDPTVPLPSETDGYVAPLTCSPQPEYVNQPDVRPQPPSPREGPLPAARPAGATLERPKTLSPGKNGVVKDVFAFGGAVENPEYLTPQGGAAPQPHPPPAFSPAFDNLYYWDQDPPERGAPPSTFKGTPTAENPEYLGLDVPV
# Description: The Z’-LYTE™ Kinase Assay-Tyr6 Peptide kit (Thermo Fischer Scientific™, Madison, WI, USA) was employed to evaluate the potential of selected natural products to suppress the catalytic activity of HER2 kinase. The assay adopts a Fluorescence Resonance Energy Transfer (FRET) based method in a cell-free coupled-enzyme format with no use of antibodies. The assay method mainly relies on the difference in sensitivity of phosphorylated and non-phosphorylated peptides to proteolytic cleavage. This method is a ratio metric method that calculates the Emission Ratio of donor emission divided by acceptor emission after excitation of the donor fluorophore at 400 nm. In this assay, 20 µL/well reactions containing kinase buffer, 200 µM ATP, 4µM Z’-LYTE Tyr6 Peptide substrate, 2500 ng/mL HER2 kinase, and drugs of interest functioning as inhibitors were set up in 96-well plates. Each well received 10 µL of site-specific protease development solution after one hour of room temperature incubation. The incubation continued for a full hour. Following process termination, the kinase inhibitory activity and/or peptide substrate cleavage status were assessed using a plate reader (BioTek FLx800™) to measure the ratio of fluorescence signal at 445 nm (coumarin)/520 nm (fluorescein).
# The IC50 value for each natural product was computed using XLfit® 4.1 software (ID Business Solutions Inc. (IDBS), Emeryville CA), applying non-linear regression of log concentration against the percentage of HER2 inhibition.
# Utilizing the Z’-LYTE™ Kinase Assay-Tyr6 Peptide kit as a cell-free system for evaluating the inhibitory activity of HER2, the five natural products were evaluated for their capacity to inhibit HER2 phosphorylation. Since its kinase catalysis is necessary for all HER2-mediated activities, we attempted at this initial stage to validate the HER2 inhibitory ability of the five in silico hits directly on the HER2 purified kinase domain (amino acids 676–1255), that was in vitro phosphorylated to attain the maximum level of intrinsic kinase activity. In this assay, the substrate was Z’-LYTE™ Tyr6 peptide; thus, the changes in its phosphorylation can directly correlate with the HER2 kinase activity. In the meantime, tyrphostin AG 1478 was used as a positive control to ensure the validity of the assay. Lapatinib (Tykerb®) was included as a second positive control to benchmark virtual hits’ performance against clinically approved standards.
# BT-474 cells = assay: MTT proliferation assay, BT-474; assay type: cell-based, human; conditions: Homo sapiens
# MCF10A cells = assay: MTT cytotoxicity assay, non-tumorigenic MCF10A; assay type: cell-based, human
# caspase 3 = assay: Real-time PCR caspase gene expression in BT-474 cells; assay type: cell-based, human; conditions: BT-474, liquiritin at its IC50
# Experimental: (§1) RNA extraction was performed using Qiagen total RNA extraction kit from seeded BT-474 cells untreated and treated with liquiritin at a concentration equivalent to its respective IC50 value (determined via prior proliferation assays) according to the manufacturer’s manual. NanoDrop Lite Plus spectrophotometer™ (ThermoScientific, USA) was used for quantitation and purity evaluation of the extracted total RNA. cDNA synthesis and real-time quantitative PCR were performed in one reaction tube using iScript™ One-Step RT-PCR Kit with SYBR® Green (Bio-Rad, USA) using primers listed in Table S2 per the instruction’s manual. The relative gene expression of caspases 3, 8, and 9 was analyzed using the 2^−ΔΔCT method along with untreated BT-474 cells as control and Glyceraldehyde-3-phosphate dehydrogenase (GAPDH) as a housekeeping gene. The data were expressed as fold change in gene expression.
# caspase 8 = assay: as above; assay type: cell-based, human; conditions: BT-474, liquiritin at its IC50
# Experimental: as §1
# caspase 9 = assay: as above; assay type: cell-based, human; conditions: BT-474, liquiritin at its IC50
# Experimental: as §1
# [1] = system: HER2 protein in BT-474 cells; assay: Western blot of p-HER2 and t-HER2, BT-474; assay type: cell-based, human; conditions: BT-474, 5 µM, 72 h
# Experimental: SKBR3 and BT-474 were plated in RPMI-1640 media, washed, and incubated for 72 h. They were lysed in cold lysis buffer, frozen, collected, sonicated, and centrifuged for 10 min under cooling. The stacking and resolving solutions for polyacrylamide gels were prepared using various solutions, including 30% acrylamide, 0.5 M Tris, 10% SDS, 10% Ammonium persulfate, and 0.005 mL TEMED in 3.4 mL water and 3.3 mL water respectively. The ReadyPrepTM protein extraction kit was used to extract total protein from samples. Protein concentration was determined using the Bradford Protein Assay Kit. Samples were mixed with Laemmli sample buffer, pH adjusted and boiled for five minutes at 95 °C before loading onto SDS-polyacrylamide gels. Proteins in each sample were mixed, boiled, and loaded onto SDS-polyacrylamide gels. They were separated using the SDS-PAGE method, using the TGX Stain-Free™ FastCast™ Acrylamide Kit and a Cleaver electrophoresis unit. Proteins were transferred from gels to PVDF membranes using transfer sandwiches. Filter paper, membrane, gel, and filter paper were stacked in a sandwich. Gels were blotted onto PVDF membranes via electrophoresis using a Bio-Rad Semi-dry Electroblotter for 30 min. […] The intensity of each band was quantitated using ImageLab.
compound,measurement,setting,value
O=C1C[C@@H](c2ccc(O[C@@H]3O[C@H](CO)[C@@H](O)[C@H](O)[C@H]3O)cc2)Oc2cc(O)ccc21 [Liquiritin],IC50,HER2 kinase,0.0185 µM
same,IC50,"BT-474 cells; BT-474, MTT, 48 h (Table S8), read-out: Cell growth inhibition IC50",3.5 µM
same,IC50,"BT-474 cells; BT-474, Table S9, read-out: IC50",3.5 ± 0.1 µM
same,IC50,"MCF10A cells; Homo sapiens, MCF-10A, MCF10A, MTT, 24 h",27.9 ± 1.1 µM
same,selectivity index (SI),MCF10A cells; IC50 MCF10A / IC50 BT-474,8
same,selectivity index (SI),MCF10A cells; IC50 MCF10A / IC50 SKBR3,4.4
same,"caspase 3 expression, fold change vs untreated cells",caspase 3,approximately 10.8 fold
same,"caspase-8 expression, fold increase",caspase 8,2.6 fold
same,"caspase 9 expression, fold change vs untreated cells",caspase 9,~8.1 fold
same,total expression levels of HER2 protein,[1],comparable suppressive effects
same,HER2 phosphorylation,[1]; vs vehicle,significantly inhibited HER2 phosphorylation
